{"source": "patent US9107926B2", "about": "“Mutant selectivity and combinations of a phosphoinositide 3-kinase inhibitor compound and chemotherapeutic agents for the treatment of cancer” (Genentech, Inc., priority 2012, dated 2015)", "assay_in_all_cases": "CellTiter-Glo cell proliferation assay", "assay_type_in_all_cases": "cell-based", "key": {"MDA-MB-436": {"system": "MDA-MB-436", "settings": "Homo sapiens, Breast, PTEN"}, "SW1783": {"system": "SW1783", "settings": "Homo sapiens, Glioma, PTEN"}, "Cal 85-1": {"system": "Cal 85-1", "settings": "Homo sapiens, Breast, WT"}, "H1048": {"system": "H1048", "settings": "Homo sapiens, NCI-H1048, Lung(SC), Kinase-HET.1047H > R, HET.391I > M"}, "SKBR3": {"system": "SKBR3", "settings": "Homo sapiens, SK-BR-3, Breast, HER2 Amplified", "protocol": "Cell Culture Medium: RPMI or DMEM high glucose, 10% Fetal Bovine Serum, 2 mM L-Glutamine, P/S. Incubate O/N (overnight) at 37° C., 5% CO2.\nDrug Addition to Cells, Cell Plate (1:10 dilution): Add 6 μl of media+compound directly to cells (54 μl of media on the cells already). Incubate 3 days at 37° C., 5% CO2 in an incubator that will not be opened often.\nDay 5—Develop Plates, Thaw Cell Titer Glo Buffer at room temperature: Remove Cell Plates from 37° C. and equilibrate to room temperature for about 30 minutes. Add Cell Titer-Glo® Buffer to Cell Titer-Glo® Substrate (bottle to bottle). Add 30 μl Cell Titer-Glo® Reagent (Promega cat.#G7572) to each well of cells. Place on plate shaker for about 30 minutes. Read luminescence on Analyst HT Plate Reader (half second per well)."}, "SF539": {"system": "SF539", "settings": "Homo sapiens, SF-539, Glioma, PTEN"}, "H82": {"system": "H82", "settings": "Homo sapiens, NCI-H82, Lung(SC), PTEN"}, "H2009": {"system": "H2009", "settings": "Homo sapiens, NCI-H2009, Lung(NSCLC), K-RAS"}}, "data": [{"smiles": "Cc1nc(-c2cn3c(n2)-c2ccc(-c4cnn(C(C)(C)C(N)=O)c4)cc2OCC3)n(C(C)C)n1", "note": "[GDC-0032, 2-(4-(2-(1-isopropyl-3-methyl-1H-1,2,4-triazol-5-yl)-5,6-dihydrobenzo[f]imidazo[1,2-d][1,4]oxazepin-9-yl)-1H-pyrazol-1-yl)-2-methylpropanamide]", "values": [{"measurement": "EC50", "setting": "MDA-MB-436", "value": 4.69, "unit": "µM"}, {"measurement": "EC50", "setting": "SW1783", "value": 3.11, "unit": "µM"}, {"measurement": "EC50", "setting": "Cal 85-1", "value": 0.52, "unit": "µM"}, {"measurement": "EC50", "setting": "H1048", "value": 0.014, "unit": "µM"}, {"measurement": "EC50", "setting": "SKBR3", "value": 0.043, "unit": "µM"}, {"measurement": "EC50", "setting": "SF539", "value": 1.88, "unit": "µM"}, {"measurement": "EC50", "setting": "H82", "value": 10, "unit": "µM"}, {"measurement": "EC50", "setting": "H2009", "value": 0.71, "unit": "µM"}]}]}
